Measured values from PMC11845477, “Exploring the principles behind antibiotics with limited resistance” (Nature Communications, 2025).
Where a SMILES comes first, the peptide text is derived from it. Bridges are numbered along the chain shown (N, C = ends). [ ]: non-standard residue; d: D form. The star is where a group is joined. X1 = NC[C@@H](CC(=O)*)c1cccc(Cl)c1; Dab = NCC[C@H](N)C(=O)O; Dap = NC[C@H](N)C(=O)O

System: K. pneumoniae ATCC 10031 (SEN) and K. pneumoniae ATCC 700603 (MDR)
Experiment: Adaptive laboratory evolution (ALE), relative MIC of evolved lines
Assay type: cell-based, Klebsiella pneumoniae
In short: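 Ten parallel populations per antibiotic–ancestor pair were evolved in MHB at 37 °C, starting near 50% growth-inhibiting drug. Every 72 h they were passaged into 0.5–2.5× increasing concentrations, keeping the highest-drug well with OD600 > 0.2.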

[1] = KP-MDR (Klebsiella pneumoniae ATCC 700603), evolved line 2
[2] = KP-MDR (Klebsiella pneumoniae ATCC 700603), evolved line 4
[3] = KP-MDR (Klebsiella pneumoniae ATCC 700603), evolved line 6
[4] = KP-MDR (Klebsiella pneumoniae ATCC 700603), evolved line 8
[5] = KP-MDR (Klebsiella pneumoniae ATCC 700603), evolved line 10
[6] = KP-SEN (Klebsiella pneumoniae ATCC 10031), evolved line 1
[7] = KP-SEN (Klebsiella pneumoniae ATCC 10031), evolved line 3
[8] = KP-SEN (Klebsiella pneumoniae ATCC 10031), evolved line 4
[9] = KP-SEN (Klebsiella pneumoniae ATCC 10031), evolved line 6
[10] = KP-SEN (Klebsiella pneumoniae ATCC 10031), evolved line 10

CC(C)C[C@@H]1NC(=O)[C@@H](Cc2ccccc2)NC(=O)[C@H](CCN)NC(=O)[C@@H](NC(=O)[C@H](CN)NC(=O)[C@@H](NC(=O)C[C@H](CN)c2cccc(Cl)c2)[C@@H](C)O)CCNC(=O)[C@H]([C@@H](C)O)NC(=O)[C@H](CCN)NC(=O)[C@H](CCN)NC1=O [SPR206] (X1-T[Dap][Dab][Dab][dF]L[Dab][Dab]T; lactam 3-C (inferred); N-terminus assumed)
Relative MIC (ALE, K. pneumoniae ATCC 700603 (KP-MDR), evolved line 7): 512
Relative MIC (ALE, K. pneumoniae ATCC 700603 (KP-MDR), evolved line 8): 1024
Relative MIC (ALE, K. pneumoniae ATCC 700603 (KP-MDR), evolved line 9): 1024
Relative MIC (ALE, K. pneumoniae ATCC 700603 (KP-MDR), evolved line 10): 512
Relative MIC (ALE, Klebsiella pneumoniae ATCC 10031 (KP-SEN), evolved line 1): 2048
Relative MIC (ALE, Klebsiella pneumoniae ATCC 10031 (KP-SEN), evolved line 2): 2
Relative MIC (ALE, Klebsiella pneumoniae ATCC 10031 (KP-SEN), evolved line 3): 2048
Relative MIC (ALE, Klebsiella pneumoniae ATCC 10031 (KP-SEN), evolved line 4): 2048
Relative MIC (ALE, Klebsiella pneumoniae ATCC 10031 (KP-SEN), evolved line 6): 2048
Relative MIC (ALE, Klebsiella pneumoniae ATCC 10031 (KP-SEN), evolved line 7): 2
Relative MIC (ALE, Klebsiella pneumoniae ATCC 10031 (KP-SEN), evolved line 8): 2
Relative MIC (ALE, Klebsiella pneumoniae ATCC 10031 (KP-SEN), evolved line 10): 2048
Relative MIC (ALE, Klebsiella pneumoniae ATCC 700603 (KP-MDR), evolved line 1): 256
Relative MIC (ALE, Klebsiella pneumoniae ATCC 700603 (KP-MDR), evolved line 2): 1024
Relative MIC (ALE, Klebsiella pneumoniae ATCC 700603 (KP-MDR), evolved line 3): 512
Relative MIC (ALE, Klebsiella pneumoniae ATCC 700603 (KP-MDR), evolved line 4): 256
Relative MIC (ALE, Klebsiella pneumoniae ATCC 700603 (KP-MDR), evolved line 5): 256
Relative MIC (ALE, Klebsiella pneumoniae ATCC 700603 (KP-MDR), evolved line 6): 512
MIC of evolved line (KP-MDR (K. pneumoniae ATCC 700603), evolved line 1 of the given antibiotic): 128 µg/mL
Relative MIC (KP-MDR (K. pneumoniae ATCC 700603), evolved line 1 vs ancestor): 256
MIC of evolved line (KP-MDR (K. pneumoniae ATCC 700603), evolved line 2 of the given antibiotic): 512 µg/mL
Relative MIC (KP-MDR (K. pneumoniae ATCC 700603), evolved line 2 vs ancestor): 1024
MIC of evolved line (KP-MDR (K. pneumoniae ATCC 700603), evolved line 3 of the given antibiotic): 256 µg/mL
Relative MIC (KP-MDR (K. pneumoniae ATCC 700603), evolved line 3 vs ancestor): 512
MIC of evolved line (KP-MDR (K. pneumoniae ATCC 700603), evolved line 4 of the given antibiotic): 128 µg/mL
Relative MIC (KP-MDR (K. pneumoniae ATCC 700603), evolved line 4 vs ancestor): 256
MIC of evolved line (KP-MDR (K. pneumoniae ATCC 700603), evolved line 5 of the given antibiotic): 128 µg/mL
Relative MIC (KP-MDR (K. pneumoniae ATCC 700603), evolved line 5 vs ancestor): 256
MIC of evolved line (KP-MDR (K. pneumoniae ATCC 700603), evolved line 6 of the given antibiotic): 256 µg/mL
Relative MIC (KP-MDR (K. pneumoniae ATCC 700603), evolved line 6 vs ancestor): 512
MIC of evolved line (KP-MDR (K. pneumoniae ATCC 700603), evolved line 7 of the given antibiotic): 256 µg/mL
Relative MIC (KP-MDR (K. pneumoniae ATCC 700603), evolved line 7 vs ancestor): 512
MIC of evolved line (KP-MDR (K. pneumoniae ATCC 700603), evolved line 8 of the given antibiotic): 512 µg/mL
Relative MIC (KP-MDR (K. pneumoniae ATCC 700603), evolved line 8 vs ancestor): 1024
MIC of evolved line (KP-MDR (K. pneumoniae ATCC 700603), evolved line 9 of the given antibiotic): 512 µg/mL
Relative MIC (KP-MDR (K. pneumoniae ATCC 700603), evolved line 9 vs ancestor): 1024
MIC of evolved line (KP-MDR (K. pneumoniae ATCC 700603), evolved line 10 of the given antibiotic): 256 µg/mL
Relative MIC (KP-MDR (K. pneumoniae ATCC 700603), evolved line 10 vs ancestor): 512
Relative MIC (KP-MDR (Klebsiella pneumoniae ATCC 700603), evolved line 1): 256
Relative MIC [1]: 1024
Relative MIC (log10) [1]: 3.0103 log10
Relative MIC (KP-MDR (Klebsiella pneumoniae ATCC 700603), evolved line 3): 512
Relative MIC [2]: 256
Relative MIC (log10) [2]: 2.408 log10
Relative MIC (KP-MDR (Klebsiella pneumoniae ATCC 700603), evolved line 5): 256
Relative MIC [3]: 512
Relative MIC (log10) [3]: 2.709 log10
Relative MIC (KP-MDR (Klebsiella pneumoniae ATCC 700603), evolved line 7): 512
Relative MIC [4]: 1024
Relative MIC (log10) [4]: 3.0103 log10
Relative MIC (KP-MDR (Klebsiella pneumoniae ATCC 700603), evolved line 9): 1024
Relative MIC [5]: 512
Relative MIC (log10) [5]: 2.709 log10
MIC of evolved line (KP-SEN (K. pneumoniae ATCC 10031), evolved line 1 of the given antibiotic): 1020 µg/mL
Relative MIC (KP-SEN (K. pneumoniae ATCC 10031), evolved line 1 vs ancestor): 2048
MIC of evolved line (KP-SEN (K. pneumoniae ATCC 10031), evolved line 2 of the given antibiotic): 1 µg/mL
Relative MIC (KP-SEN (K. pneumoniae ATCC 10031), evolved line 2 vs ancestor): 2
MIC of evolved line (KP-SEN (K. pneumoniae ATCC 10031), evolved line 3 of the given antibiotic): 1020 µg/mL
Relative MIC (KP-SEN (K. pneumoniae ATCC 10031), evolved line 3 vs ancestor): 2048
MIC of evolved line (KP-SEN (K. pneumoniae ATCC 10031), evolved line 4 of the given antibiotic): 1020 µg/mL
Relative MIC (KP-SEN (K. pneumoniae ATCC 10031), evolved line 4 vs ancestor): 2048
MIC of evolved line (KP-SEN (K. pneumoniae ATCC 10031), evolved line 6 of the given antibiotic): 1020 µg/mL
Relative MIC (KP-SEN (K. pneumoniae ATCC 10031), evolved line 6 vs ancestor): 2048
MIC of evolved line (KP-SEN (K. pneumoniae ATCC 10031), evolved line 7 of the given antibiotic): 1 µg/mL
Relative MIC (KP-SEN (K. pneumoniae ATCC 10031), evolved line 7 vs ancestor): 2
MIC of evolved line (KP-SEN (K. pneumoniae ATCC 10031), evolved line 8 of the given antibiotic): 1 µg/mL
Relative MIC (KP-SEN (K. pneumoniae ATCC 10031), evolved line 8 vs ancestor): 2
MIC of evolved line (KP-SEN (K. pneumoniae ATCC 10031), evolved line 10 of the given antibiotic): 1020 µg/mL
Relative MIC (KP-SEN (K. pneumoniae ATCC 10031), evolved line 10 vs ancestor): 2048
Relative MIC [6]: 2048
Relative MIC (log10) [6]: 3.311 log10
Relative MIC (KP-SEN (Klebsiella pneumoniae ATCC 10031), evolved line 2): 2
Relative MIC [7]: 2048
Relative MIC (log10) [7]: 3.311 log10
Relative MIC [8]: 2048
Relative MIC (log10) [8]: 3.311 log10
Relative MIC [9]: 2048
Relative MIC (log10) [9]: 3.311 log10
Relative MIC (KP-SEN (Klebsiella pneumoniae ATCC 10031), evolved line 8): 2
Relative MIC [10]: 2048
Relative MIC (log10) [10]: 3.311 log10
Relative MIC (KP-SEN, Klebsiella pneumoniae ATCC 10031, evolved line 7): 2
Relative MIC (Klebsiella pneumoniae ATCC 10031 (KP-SEN), evolved line 1): 2048
Relative MIC (Klebsiella pneumoniae ATCC 10031 (KP-SEN), evolved line 2): 2
Relative MIC (Klebsiella pneumoniae ATCC 10031 (KP-SEN), evolved line 3): 2048
Relative MIC (Klebsiella pneumoniae ATCC 10031 (KP-SEN), evolved line 4): 2048
Relative MIC (Klebsiella pneumoniae ATCC 10031 (KP-SEN), evolved line 6): 2048
Relative MIC (Klebsiella pneumoniae ATCC 10031 (KP-SEN), evolved line 7): 2
Relative MIC (Klebsiella pneumoniae ATCC 10031 (KP-SEN), evolved line 8): 2
Relative MIC (Klebsiella pneumoniae ATCC 10031 (KP-SEN), evolved line 10): 2048
Relative MIC (Klebsiella pneumoniae ATCC 700603 (KP-MDR), evolved line 1): 256
Relative MIC (Klebsiella pneumoniae ATCC 700603 (KP-MDR), evolved line 2): 1024
Relative MIC (Klebsiella pneumoniae ATCC 700603 (KP-MDR), evolved line 3): 512
Relative MIC (Klebsiella pneumoniae ATCC 700603 (KP-MDR), evolved line 4): 256
Relative MIC (Klebsiella pneumoniae ATCC 700603 (KP-MDR), evolved line 5): 256
